A melting point compilation (Tetko et al.)

| melting point [°C] | Compound |
| --- | --- |
| 82 to 84 | Nc1ccc(NC(=O)CN2CCCCCC2)cc1 |
| 113 to 115 | O=C(O)c1cccc(Sc2cccc(Br)c2)n1 |
| 200 to 202 | CS(=O)(=O)c1cccc(Cl)c1C(N)=O |
| 241 to 243 | O=C(O)c1cccc(S(=O)(=O)Nc2ccc(Br)cc2)c1 |
| 67 to 69 | CC(Oc1cccc(C(C)(C)C)c1)C(=O)O (stereo unspecified) |
| 79 to 81 | O=S(=O)(Cl)c1c(Cl)ccnc1Cl |
| 190 to 192 | O=C(O)/C=C/c1ccc(OCc2cn3ccccc3n2)cc1 |
| 179 to 181 | Cc1ccc(S(N)(=O)=O)cc1NC(=O)CCl |
| 147 to 160 | COC(=O)C(F)c1nc2ccccc2c(=O)[nH]1 (stereo unspecified) |
| 172 to 174 | O=S(=O)(Cl)CCS(=O)(=O)c1ccccc1 |
| 110 to 112 | CS(=O)(=O)Cc1noc(C(Cl)(Cl)Cl)n1 |
| 118 to 120 | CC(C)N(C)S(=O)(=O)c1ccc(NC(=O)CCl)cc1 |
| 37 to 39 | COC(=O)C1COc2ccccc2O1 (stereo unspecified) |
| 163 to 165 | CC(C)(C)OC(=O)NC(C(=O)O)C1CCCCC1 (stereo unspecified) |
| 139 to 141 | COCC(=O)Nc1ccc(O)cc1 |
| 284 to 286 | NC(=O)Nc1cccc2ccccc12 |
| 267 to 269 | O=C(O)c1ccc(NS(=O)(=O)c2ccc(Br)cc2)cc1 |
| 78 to 82 | O=C(NC1CCCCC1)OCC(F)(F)F |
| 106 to 108 | NS(=O)(=O)Cc1ccon1 |
| 208 to 210 | NC1=NC(=O)c2ccccc21 |
| 91 to 93 | COc1ccc(C=O)c([N+](=O)[O-])c1 |
| 139 to 141 | O=c1[nH]c(CNCc2ccccc2)nc2ccccc12 |
| 108 to 110 | CCOC(=O)c1c(N)sc(C(=O)OC(C)(C)C)c1C |
| 119 to 121 | COCc1c(C(=O)O)oc2ccccc12 |
| 166 to 168 | NNC(=O)CCc1ccccc1O |

| melting point [°C] | Compound |
| --- | --- |
| 86 to 88 | Cc1cc(Cl)c(N)cc1Cl |
| 134 to 136 | Nc1nc2ccc(OCC(F)(F)F)cc2s1 |
| 103 to 105 | N#Cc1ccc(Cn2cnc3ccccc32)cc1 |
| 146 to 148 | O=C(O)c1ccc(Oc2cccc(F)c2)cc1 |
| 167 to 170 | NC(=O)c1cnn(-c2ccccc2)c1N |
| 179 to 181 | Cc1cc(COc2ccc(C=O)cc2)oc1C(=O)O |
| 41 to 43 | CC(C)(N)CCS(C)(=O)=O |
| 226 to 228 | CC(C)(C)OC(=O)N1CCc2nc(N)sc2C1 |
| 175 to 177 | c1ccc(COc2ccc3[nH]ncc3c2)cc1 |
| 56 to 58 | Cc1cccc(C(=O)CC#N)c1C |
| 200 to 202 | CCCCOc1ccc(-c2nnc(N)[nH]2)cc1 |
| 129 to 132 | C=CCN1C(=O)C(=NN)c2ccccc21 |
| 242 to 244 | CN(C)S(=O)(=O)c1cncc(C=CC(=O)O)c1 |
| 98 to 100 | CC(C)(C)c1cc(N)n(-c2ccc(F)cc2)n1 |
| 111 to 113 | Cc1ccc(NS(=O)(=O)c2ccc(C)c(N)c2)c(C)c1 |
| 177 to 179 | OCc1cn2cc(Cl)cc(Cl)c2n1 |
| 103 to 105 | Cc1cc(Cl)n(-c2ccc(C#N)cc2)n1 |
| 269 to 271 | Nc1nc(N)nc(CO)n1 |
| 281 to 283 | O=C(O)c1ccc(N2C(=O)CSC2=S)cc1 |
| 209 to 211 | Cc1ccc(Cl)c2c1C(=O)C(=O)N2 |
| 228 to 230 | NC(=O)c1cccc2ncccc12 |
| 204 to 206 | O=C(O)c1ccc(S(=O)(=O)Nc2ccccc2Oc2ccccc2)cc1 |
| 173 to 175 | NC(=S)CN1C(=O)c2ccccc2C1=O |
| 116 to 118 | C#CCN1CCCCC1C(=O)NC (stereo unspecified) |
| 114 to 116 | COc1nc(Cl)nc(N2CCCCCC2)n1 |

| melting point [°C] | Compound |
| --- | --- |
| 134 to 136 | Cn1cc(S(=O)(=O)NN)c(=O)n(C)c1=O |
| 199 to 201 | O=Cc1sc(=O)[nH]c1Cl |
| 109 to 111 | O=C(O)CCc1ccccc1[N+](=O)[O-] |
| 219 to 221 | COc1cc(OC)cc(C(=O)Nc2ccc(C(=O)O)c(O)c2)c1 |
| 123 to 125 | CC(C)C(=O)N1CCCCC1C(=O)O (stereo unspecified) |
| 144 to 146 | Cc1nn(C)c2ncc(SC(=O)N(C)C)cc12 |
| 55 to 57 | Oc1ccccc1OCc1ccc(F)cc1 |
| 268 to 270 | O=C1Nc2ccc(Br)cc2C1=NO |
| 49 to 51 | CCC(Br)C(=O)c1ccc(OC)cc1 (stereo unspecified) |
| 223 to 225 | CCOC(=O)c1c(-c2ccc(OC)c(OC)c2)csc1N |
| 49 to 51 | CCC(C)c1csc(NC)n1 (stereo unspecified) |
| 156 to 158 | COc1cccc(-c2nn(-c3ccccc3)cc2C(=O)O)c1 |
| 219 to 221 | O=C(O)c1ccc(Cc2nnc[nH]2)cc1 |
| 149 to 151 | CC(C)(C)OC(=O)N1C(=O)N(CC#N)C(C)(C)C1=O |
| 183 to 185 | Cc1c(Br)cc(C(=O)O)cc1S(=O)(=O)Cl |
| 112 to 114 | CS(=O)(=O)c1cc(S(=O)(=O)Cl)ccc1F |
| 133 to 135 | C#CCNC(=O)Nc1ccccc1 |
| 49 to 51 | Nc1ccccc1OCC(F)(F)F |
| 45 to 47 | CC1(C)CCC(CC(=O)O)CC1 |
| 232 to 234 | O=c1[nH]c(-c2cnccn2)no1 |
| 136 to 138 | CCNc1ncc(C(=O)OC)s1 |
| 185 to 187 | Cc1nc(C2CCCC2)sc1C(=O)O |
| 132 to 134 | CC(C)(C)c1noc(-c2cc(Cl)ccc2N)n1 |
| 134 to 136 | CNc1ncc(I)cn1 |
| 68 to 70 | CCOC(=O)c1cc(N)c2c(c1)OCO2 |

| melting point [°C] | Compound |
| --- | --- |
| 122 to 124 | O=C(O)c1ccn(-c2ccccc2F)n1 |
| 120 to 122 | CN(C(=O)c1ccc(Cl)c(N)c1)c1ccccc1 |
| 149 to 151 | CN(C)c1nc(=N)cc[nH]1 |
| 147 to 149 | O=C(O)C1(c2cccc(C(F)(F)F)c2)CCOCC1 |
| 166 to 168 | Nc1ccc2oc(-c3ccccc3F)nc2c1 |
| 117 to 119 | CC(C)(C)c1cccc(OCC(=O)O)c1 |
| 149 to 151 | CN(c1ccc(O)cc1)S(=O)(=O)c1cccs1 |
| 88 to 90 | COc1cc(C(=O)NN)ccc1OCCC(C)C |
| 298 to 300 | CNc1nc(CC(C)=O)ns1 |
| 305 to 307 | Cc1nn2c(S)nnc2nc1O |
| 98 to 100 | COc1cccc(CNC(=O)n2ccnc2)c1 |
| 152 to 154 | Cc1ccc(Cl)c(C(=O)O)c1N |
| 151 to 153 | O=C1NC2(CCCCC2)C(=O)N1Cc1ccccc1 |
| 209 to 211 | COC(=O)c1c[nH][nH]c1=O |
| 173 to 175 | Cn1ccnc1CN1CCC(C(=O)O)CC1 |
| 75 to 77 | O=C(NC1CCCC1)c1ccccc1O |
| 190 to 192 | Cc1cccc2c(=O)[nH]c(CCl)nc12 |
| 145 to 150 | O=C(O)Cn1nnc2ccccc2c1=O |
| 204 to 206 | COCCN(C(=O)CCl)c1c(N)n(CC(C)C)c(=O)[nH]c1=O |
| 63 to 65 | CNC(=O)CCCl |
| 135 to 137 | Brc1ccccc1Cc1nn[nH]n1 |
| 87 to 90 | Cc1nc(CSc2ccc(C(=O)O)cc2)cs1 |
| 139 to 141 | c1ccc(Nc2nc3ccccc3s2)cc1 |
| 169 to 173 | Cc1nc(Cl)c2c(-c3ccccc3)csc2n1 |

| Compound | melting point [°C] |
| --- | --- |
| CN1CCc2nc(N)c(C#N)cc2C1 | 215 to 217 |
| CC1CCC(NC(=O)CCl)CC1 (stereo unspecified) | 152 to 155 |
